Experiment: method code SF-HPLC, from PMID: 2608704
Conditions: pH 1.0

| SMILES | logD |
| --- | --- |
| O=C(O)CCSC1=NS(=O)(=O)c2cc(Br)cc(Br)c2N1 | 2.04 |
| Cc1ccc2c(c1)NC(SCC(=O)O)=NS2(=O)=O | 0.7 |
| COc1ccc2c(c1)NC(SCCC(=O)O)=NS2(=O)=O | 0.96 |
| O=C(O)CSC1=NS(=O)(=O)c2ccccc2N1 | 0.18 |
| O=C(O)CCSC1=NS(=O)(=O)c2ccccc2N1 | 0.66 |
| O=C(O)CSC1=NS(=O)(=O)c2cc(Cl)c(Cl)cc2N1 | 1.1 |
| O=C(O)CCSC1=NS(=O)(=O)c2cc(Cl)ccc2N1 | 1.43 |
| O=C(O)CCCC1=NS(=O)(=O)c2cc(Br)cc(Br)c2N1 | 1.51 |
| O=C(O)CCSC1=NS(=O)(=O)c2ccc(Cl)cc2N1 | 1.6 |
| Cc1ccc2c(c1)NC(SCCC(=O)O)=NS2(=O)=O | 1.16 |
| O=C(O)CSC1=NS(=O)(=O)c2cc(Cl)ccc2N1 | 0.72 |
| O=C(O)CCC1=NS(=O)(=O)c2cc(Cl)c(Cl)cc2N1 | 1.5 |
| COc1ccc2c(c1)NC(SCC(=O)O)=NS2(=O)=O | 0.37 |
| O=C(O)CSC1=NS(=O)(=O)c2ccc(C(F)(F)F)cc2N1 | 1.62 |
| O=C(O)CSC1=NS(=O)(=O)c2cc(Br)ccc2N1 | 0.92 |
| O=C(O)CCC1=NS(=O)(=O)c2cc(Cl)cc(Cl)c2N1 | 1.04 |
| O=C(O)CSC1=NS(=O)(=O)c2ccc(Cl)cc2N1 | 0.82 |
| O=C(O)CCSC1=NS(=O)(=O)c2cc(Br)ccc2N1 | 1.77 |
| O=C(O)CCSC1=NS(=O)(=O)c2ccc(C(F)(F)F)cc2N1 | 1.96 |
| O=C(O)CCCC1=NS(=O)(=O)c2cc(Cl)cc(Cl)c2N1 | 1.22 |
| O=C(O)CCC1=NS(=O)(=O)c2cc(Br)cc(Br)c2N1 | 1.35 |
| O=C(O)CCSC1=NS(=O)(=O)c2cc(Cl)c(Cl)cc2N1 | 1.81 |
| O=C(O)CSC1=NS(=O)(=O)c2cc(Cl)cc(Cl)c2N1 | 1.09 |
| O=C(O)CSC1=NS(=O)(=O)c2cc(Br)cc(Br)c2N1 | 1.16 |

From the SangsterLogP compilation
